Laboratory results as given in article PMC11349956 (EJNMMI Radiopharmacy and Chemistry, 2024).
Structures can show the parent of a compound that is named as a salt.

Tests used:
[1] = rat striatum, 18F-LBT-999, ref Sérrière et al. [2014]; cited from earlier work
DAT = DAT (Rattus norvegicus, UniProt P23977); format: in vivo; conditions: GBR12909 12.5 mg/kg i.p. 15 min before LBT-999 0.02 mg/kg i.v.
Sequence of DAT (P23977 whole entry): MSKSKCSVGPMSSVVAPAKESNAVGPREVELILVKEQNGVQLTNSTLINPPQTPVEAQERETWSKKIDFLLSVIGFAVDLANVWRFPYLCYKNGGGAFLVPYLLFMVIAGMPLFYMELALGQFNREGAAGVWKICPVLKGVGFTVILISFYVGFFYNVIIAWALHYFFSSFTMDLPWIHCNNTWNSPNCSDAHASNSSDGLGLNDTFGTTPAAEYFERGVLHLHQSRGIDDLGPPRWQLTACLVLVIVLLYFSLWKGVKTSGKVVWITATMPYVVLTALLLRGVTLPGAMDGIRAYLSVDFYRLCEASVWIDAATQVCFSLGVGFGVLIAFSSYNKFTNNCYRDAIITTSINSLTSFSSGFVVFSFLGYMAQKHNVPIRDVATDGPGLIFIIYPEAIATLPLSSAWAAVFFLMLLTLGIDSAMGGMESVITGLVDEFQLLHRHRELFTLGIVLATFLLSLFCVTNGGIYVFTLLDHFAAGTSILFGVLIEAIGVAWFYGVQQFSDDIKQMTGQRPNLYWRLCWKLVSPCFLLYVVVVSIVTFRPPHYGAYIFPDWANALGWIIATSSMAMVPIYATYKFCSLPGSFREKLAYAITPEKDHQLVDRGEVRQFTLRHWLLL

| SMILES | average percentage of injected doses in the striatum derived from PET studies [1] [%] | effect on brain binding of LBT-999 (DAT) |
| --- | --- | --- |
| COC(=O)[C@H]1[C@@H](c2ccc(C)cc2)C[C@@H]2CC[C@H]1N2C/C=C/C[18F] [18F-LBT-999] | 2.17 ± 0.42 | – |
| Fc1ccc(C(OCCN2CCN(CCCc3ccccc3)CC2)c2ccc(F)cc2)cc1 [GBR 12909, 1-(2-bis(4-fluorophenyl)methoxy)ethyl)-4-(3-phenylpropyl)piperazine hydrochloride] | – | prevented any binding of LBT-999 |
